Laboratory results from patent US20170327549A1, “Adenylation Enzyme Inhibitors” (Stichting Het Nederlands Kanker Instituut - antoni van …, priority 2014, published 2017).

Molecular target: T1, Uba1 (Homo sapiens, UniProt P22314)
T1 sequence (P22314 1-1058): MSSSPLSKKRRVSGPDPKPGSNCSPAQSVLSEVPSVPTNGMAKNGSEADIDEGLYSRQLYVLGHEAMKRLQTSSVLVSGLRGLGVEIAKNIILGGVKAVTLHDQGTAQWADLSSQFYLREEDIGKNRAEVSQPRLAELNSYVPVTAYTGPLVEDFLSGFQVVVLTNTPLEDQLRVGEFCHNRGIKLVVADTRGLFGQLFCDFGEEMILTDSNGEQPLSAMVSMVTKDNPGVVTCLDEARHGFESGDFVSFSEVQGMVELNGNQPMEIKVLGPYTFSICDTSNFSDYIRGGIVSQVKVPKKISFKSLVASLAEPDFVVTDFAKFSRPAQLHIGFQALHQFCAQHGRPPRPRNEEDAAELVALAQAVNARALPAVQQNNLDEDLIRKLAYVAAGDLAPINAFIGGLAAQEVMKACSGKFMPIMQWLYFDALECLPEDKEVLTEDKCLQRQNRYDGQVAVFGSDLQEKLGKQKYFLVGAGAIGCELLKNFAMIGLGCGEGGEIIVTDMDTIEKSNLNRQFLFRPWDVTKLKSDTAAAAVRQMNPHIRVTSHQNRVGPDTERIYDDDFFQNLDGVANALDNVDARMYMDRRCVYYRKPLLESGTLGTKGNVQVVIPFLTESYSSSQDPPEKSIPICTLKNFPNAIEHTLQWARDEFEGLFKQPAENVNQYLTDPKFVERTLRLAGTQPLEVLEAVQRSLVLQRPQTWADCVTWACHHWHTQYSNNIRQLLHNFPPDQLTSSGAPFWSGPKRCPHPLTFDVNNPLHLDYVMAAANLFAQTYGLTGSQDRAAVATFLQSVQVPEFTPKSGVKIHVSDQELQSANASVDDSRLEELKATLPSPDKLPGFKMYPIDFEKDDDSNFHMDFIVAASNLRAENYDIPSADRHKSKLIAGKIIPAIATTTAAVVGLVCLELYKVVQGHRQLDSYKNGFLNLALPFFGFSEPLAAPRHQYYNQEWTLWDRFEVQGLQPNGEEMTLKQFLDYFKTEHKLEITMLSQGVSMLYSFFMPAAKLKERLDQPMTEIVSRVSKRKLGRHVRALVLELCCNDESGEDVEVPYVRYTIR
Assay: Peptide inhibitors of Ub-E1 thioester formation
Format: biochemical
Description: Peptides VYRFYGG and VYRFYGΔAla of varying concentrations (10, 50, 100, 200, 500, 700, 1000 μM) were incubated with 0.3 μM Uba1 in the presence of 1 mM ATP and 10 mM MgCl2 in TBS buffer (50 mM Tris, 150 mM NaCl, pH=7.5) for 15 min at room temperature. TAMRA-Ub (1 μM) was added to the reaction and samples were taken at two time points, respectively 15 sec and 15 min. The proteins were separated by SDS-PAGE and the TAMRA-Ub-E1 conjugates were visualized using a fluorescence scanner (λex=530 nm; λem=580 nm).

[1] = initial velocities measured at 15 seconds
[2] = reactions allowed to proceed for 15 min

| inhibition of (TAMRA-Ub)-E1 formation [1] | inhibition of (TAMRA-Ub)-E1 formation [2] | Substance | inhibitory potency against Uba1 activity relative to VYRFYGG (after 15 min incubation, quantified from gel scanning) |
| --- | --- | --- | --- |
| inhibitory effect | no detectable inhibition of E1 activity | VYRFYGG [reference compound] |  |
| inhibitory effect | prolonged inhibition of the E1 | VYRFYG-ΔAla | higher inhibitory potency against Uba1 activity |
